In EP0544958A1, “Cephalosporin compounds and processes for preparing the same” (TANABE SEIYAKU CO., LTD., priority 1991, dated 1993):
Where a name gives a salt, the structure may show the parent alone.

Experiments:
[1] = tested on: Staphylococcus epidermidis Kawamura; test: antimicrobial activity compared with ceftazidime; assay type: cell-based; conditions: relative to ceftazidime
[2] = tested on: Citrobacter freundii GN346; test: antimicrobial activity against β-lactamase-producing bacteria compared with ceftazidime; assay type: cell-based; conditions: relative to ceftazidime
[3] = tested on: Staphylococcus aureus 209P JC-1; test: antimicrobial activity compared with ceftazidime; assay type: cell-based; conditions: relative to ceftazidime
[4] = tested on: clinical isolates of MRSA; test: antibacterial activity (90 % inhibitory concentration) against clinical isolates; assay type: cell-based, methicillin resistant Staphylococcus aureus (MRSA); conditions: relative to ceftazidime
mice = test: acute toxicity by intravenous administration; assay type: in vivo; conditions: dose of 1 g/kg, five mice, within five days after administration
Source text: Moreover, the desired compounds [I] or pharmaceutically acceptable salts thereof have high absorbability in the living tissue, and the treatment effects thereof last for a long time so that the compounds [I] of the present invention show an excellent defense effect in infectious diseases caused by various microorganisms including Staphylococcus aureus and Pseudomonas aeruginosa. In addition, the desired compounds [I] of the present invention and pharmaceutically acceptable salts thereof have low toxicity and show high safety as medicaments.

SMILES | antimicrobial activity, times stronger as compared with ceftazidime [1] | antimicrobial activity, times stronger than ceftazidime [2] | antimicrobial activity, times stronger as compared with ceftazidime [3] | antibacterial activity (90 % inhibitory concentration), times superior to that of ceftazidime [4] | acute toxicity (mice that died) (mice)
Nc1nc(/C(=N/OC(C(=O)O)c2ccc(O)c3[nH]c(=O)ccc23)C(=O)N[C@@H]2C(=O)N3C(C(=O)[O-])=C(C[n+]4ccccc4)CS[C@H]23)cs1 (stereo partly drawn) [Example 4, 7β-{(Z)-2-(2-aminothiazol-4-yl)-2-[(8-hydroxy-2-oxo-1H-quinolin-5-yl)(carboxy)methyloxyimino]acetamido}-3-(1-pyridiniomethyl)-3-cephem-4-carboxylic acid sodium salt] | more than 16 times | more than 4 times |  |  | 
Nc1nc(/C(=N/OC(C(=O)O)c2ccc(O)c3[nH]c(=O)ccc23)C(=O)N[C@@H]2C(=O)N3C(C(=O)[O-])=C(C[n+]4cccc5ccccc54)CS[C@H]23)cs1 (stereo partly drawn) [Example 3, 7β-{(Z)-2-(2-aminothiazol-4-yl)-2-[(8-hydroxy-2-oxo-1H-quinolin-5-yl)(caboxy)methyloxyimino]acetamido}-3-(1-quinoliniomethyl)-3-cephem-4-carboxylic acid sodium salt] |  | more than 4 times | more than 32 times |  | 
Cc1c(N)ccc[n+]1CC1=C(C(=O)[O-])N2C(=O)[C@@H](NC(=O)/C(=N\OC(C(=O)O)c3ccc(O)c4[nH]c(=O)ccc34)c3csc(N)n3)[C@H]2SC1 (stereo partly drawn) [Example 27, 7β-{(Z)-2-(2-aminothiazol-4-yl)-2-[(8-hydroxy-2-oxo-1H-quinolin-5-yl)(carboxy)methyloxyimino]acetamido}-3-(3 amino-2-methyl-1-pyridiniomethyl)-3-cephem-4-carboxylic acid sodium salt] | more than 16 times |  |  | about 16 times | none of the five mice
